From PMC11521937, “Expression and characterization of pantothenate energy‐coupling factor transporters as an anti‐infective drug target” (Protein Science : A Publication of the Protein Society, 2024) come the findings set out here.

Series [1] in a line: In vitro MTT cytotoxicity assay, A549. It counts as cell-based, human. Conditions: human, read-out: Percent (%) cell viability at 100 μM, A549 cells. As to the method:
In vitro cytotoxicity evaluation […]
with minor modifications, which will be detailed below.
To obtain information regarding the toxicity of our compounds, their impact on the viability of human cells was investigated. HepG2 and A549 cells (2 × 10^4 cells per well) were seeded in 96-well, flat-bottomed culture plates in 100 µL culture medium (DMEM containing 10% fetal calve serum, 1% penicillin-streptomycin). Twenty-four hours after seeding the cells, medium was removed and replaced by medium containing test compounds in a final DMSO concentration of 1%. Compounds were tested in duplicates at a single concentration in 1% DMSO/medium. Epirubicin and doxorubicin were used as positive controls in serial dilutions starting from 10 µM, and rifampicin was used as a negative control (at 100 µM). The living cell mass was determined 48 h after treatment with compounds by adding 0.1 volumes of 3-(4,5-dimethylthiazol-2-yl)-2,5-diphenyltetrazolium bromide (MTT) solution (5 mg/mL sterile PBS) (Sigma, St. Louis, MO) to the wells. After incubating the cells for 30 min at 37 °C (atmosphere containing 5% CO2), medium was removed and MTT crystals were dissolved in 75 µL of a solution containing 10% SDS and 0.5% acetic acid in DMSO. The optical density (OD) of the samples was determined photometrically at 570 nm in a PHERAstar Omega plate reader (BMG labtech, Ortenberg, Germany). To obtain percent viability for each sample, their ODs were related to those of DMSO controls. At least two independent measurements were performed for each compound. The calculation of IC50 was performed using the nonlinear regression function of GraphPad Prism 10 (GraphPad Software, San Diego, CA, USA). […]
(In general: Formazan colour is commonly taken as a measure of viable cells.)

A further series has as its target ECF‐module (EcfTAA′) (Streptococcus pneumoniae, UniProt A0A0H2ZPG6+Q04HV7+Q97N51). The series is described as follows: SPR binding to immobilized ECF‐module. An excerpt:
After identifying the optimal buffer and assessing the stability of the ECF transporter proteins, we proceeded to determine the binding affinity (K d) of small‐molecule inhibitors using SPR. This label‐free technique allows for the investigation of protein–ligand interactions in real time and requires protein immobilization (GE Healthcare Life Science, [2012]). […] The ECF‐PanT, ECF‐module, and ECF‐FolT2, each bearing a histidine tag, were immobilized on a high‐affinity poly‐nitrilotriacetic acid (poly‐NTA) sensor chip, which was initially activated using NiCl2. The His‐tagged proteins were then injected over the Ni^2+‐activated surface to strongly bind to the metal (Knecht et al., [2009]). The immobilization resonance unit (RU) levels were 12,000–15,000 for ECF‐PanT, 9000–12,000 for the ECF‐module, and 6000–9000 for ECF‐FolT2.
In this assay, we used HEPES buffer (10 mM HEPES, 50 mM NaCl, 50 μM EDTA, 0.05% (v/v) DDM, and a pH value of 7.5) as recommended by Xantec Bioanalytics, with a slight modification made to create a more favorable environment for the ECF proteins, enabling their stability to be maintained throughout the assay. Additionally, the protein was maintained in the buffer containing 5% (v/v) DMSO. For a more in‐depth description of the procedures, please refer to Appendix S1.
Surface plasmon resonance (SPR)
The SPR binding studies were performed using a Reichert 4SPR surface plasmon resonance spectrometer (Reichert Technologies, Buffalo, NY, USA), and medium–density NTA derivatized polycarboxylate hydrogel NiHC200M sensor chips (XanTec Bioanalytics, Düsseldorf, Germany). The experimental procedure involved two rounds of nickel activation and one immobilization step at a concentration of 200 nM. The proteins ECF-module (92,56146 kDa), ECF-PanT (113,8745 kDa), and ECF-FolT2 (112,16316 kDa) were immobilized in flow cells 1, 2, and 3, respectively according to the standard protocol as provided by Xantec bioanalytics with a slight modification based on the recombinant proteins. The flow-cell 4 was left blank to serve as a reference.
The immobilization buffer employed for the immobilization process consisted of 10 mM HEPES with a pH of 7.5, 50 mM NaCl, 50 µM EDTA, and 0.05% DDM without DMSO. Following the immobilization step, for the binding study of the compounds, the running buffer was exchanged for the mentioned buffer with 5% v/v DMSO. This was done to ensure consistency in the percentage of DMSO present in the solutions containing the respective testing inhibitors, as these inhibitors were soluble in the DMSO solvent. By maintaining the same DMSO concentration, we aimed to minimize any potential solvent-related effects on the assay results. All running buffers were filtered and degassed before use.
The system was initially primed with 5 mM NiCl2 with an association and dissociation time of 2 min for each to activate the NTA sensor chip. Then, the recombinant proteins with a concentration of 200 nM were injected at a flow rate of 10 µL/min for 8 min. Finally, the baseline check with the running […]
the ECF-module, ECF-PanT, and ECF-FolT2, respectively.
First, the calibration curve for correction of the DMSO effect was prepared; the concentrations were 3%, 3.5% 4%, 4.5%, 5%, 5.5%, 6%, 6.5%, and 7% v/v and were diluted with SPR buffer. Then, the […]
concentration of DMSO in all the samples was set to 5% v/v DMSO. The samples (200 µL) were loaded on a 96-well plate and were injected at a flow rate of 50 μL/min. Single-cycle kinetics were applied for KD determination. The association time was set to 60 s, and the dissociation phase was recorded for 120 s. For surface regeneration, 0.35 M EDTA (pH 8.5) and 0.1 M NaOH were used. Data processing and analysis were performed by Scrubber software (Version 2.0c, 2008, BioLogic Software). Sensorgrams were calculated by sequential subtractions of the corresponding curves obtained from the reference flow cell and the running buffer (blank). SPR responses were expressed in the resonance unit (RU). The KD […]
For orientation: In SPR one partner is held on a chip, and binding of the other changes the refractive index at the surface.

The test system of the next series is Lactobacillus casei. The series is described as follows: L. casei whole‐cell uptake assay. Type of series: cell-based. Conditions: Lacticaseibacillus casei.

Like-named read-outs stand apart in the source and are kept apart here.

ECF‐module (EcfTAA′), sequence (Q04HV7 whole entry): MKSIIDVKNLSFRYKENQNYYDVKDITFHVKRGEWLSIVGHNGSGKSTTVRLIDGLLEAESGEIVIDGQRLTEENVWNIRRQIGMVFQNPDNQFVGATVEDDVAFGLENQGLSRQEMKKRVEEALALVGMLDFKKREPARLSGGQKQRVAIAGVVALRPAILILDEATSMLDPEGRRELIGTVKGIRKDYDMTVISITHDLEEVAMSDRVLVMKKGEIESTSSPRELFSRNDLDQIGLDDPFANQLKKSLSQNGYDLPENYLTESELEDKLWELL
ECF‐module (EcfTAA′), sequence (Q97N51 whole entry): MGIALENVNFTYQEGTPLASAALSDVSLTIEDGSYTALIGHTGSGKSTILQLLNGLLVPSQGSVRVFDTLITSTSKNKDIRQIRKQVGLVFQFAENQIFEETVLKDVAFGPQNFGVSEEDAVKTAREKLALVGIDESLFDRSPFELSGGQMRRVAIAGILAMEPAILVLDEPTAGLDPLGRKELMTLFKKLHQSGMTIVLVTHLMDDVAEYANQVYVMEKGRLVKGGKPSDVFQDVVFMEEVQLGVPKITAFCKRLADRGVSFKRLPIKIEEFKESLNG
ECF‐module (EcfTAA′), sequence (A0A0H2ZPG6 entry or part of it): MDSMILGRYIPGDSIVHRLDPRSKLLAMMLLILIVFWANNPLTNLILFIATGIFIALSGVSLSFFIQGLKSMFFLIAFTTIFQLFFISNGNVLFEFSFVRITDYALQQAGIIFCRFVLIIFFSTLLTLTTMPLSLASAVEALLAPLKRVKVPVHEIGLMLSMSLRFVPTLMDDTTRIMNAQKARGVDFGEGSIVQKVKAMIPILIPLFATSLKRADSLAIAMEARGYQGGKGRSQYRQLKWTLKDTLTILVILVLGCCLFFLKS

As for `CC(C)(C)OC(=O)Nc1ccc(OCc2cccc3ccccc23)cc1C(=O)O` [Compound 3], the viability at 48 h, 100 µM in series [1] was 86 ± 11%. The compound further came in with a Kd on ECF‐module (EcfTAA′) of more than 200 µM.

Regarding `O=C(O)c1cccc(NCc2ccc(-c3cccc(Cl)c3)o2)c1` [Compound 5], the viability at 48 h, 100 µM in series [1] (A549 cells) came to 102 ± 17%. The Kd at ECF‐module (EcfTAA′) is more than 200 µM. Further, the IC50 in the series with Lactobacillus casei worked out at 247 ± 78 µM.

Take `O=C(O)c1cccc(NCc2ccc(-c3ccccc3Cl)o2)c1` [Compound 6]: in series [1] (A549 cells), the viability at 48 h, 100 µM was determined as 103 ± 7%. Moreover, the Kd at ECF‐module (EcfTAA′) was more than 200 µM. The compound further had a concentration for half-maximal inhibition (IC50) with Lactobacillus casei of 285 ± 293 µM.

Compound `O=C(O)c1cc(OCc2ccc(Br)c3ccccc23)ccc1O` [Compound 2] showed a Kd at ECF‐module (EcfTAA′) of more than 200 µM.

Consider `O=C(O)c1cccc(NCc2ccc(-c3ccc(Cl)cc3)o2)c1` [Compound 4], for which, in series [1] (A549 cells), the viability at 48 h, 100 µM stood at 80 ± 10%. The same compound returned a Kd at ECF‐module (EcfTAA′) of more than 200 µM. In the series on Lactobacillus casei, this compound returned a concentration for half-maximal inhibition (IC50) of 321 ± 200 µM.

Consider `O=C(O)c1cc(OCc2cccc3ccccc23)ccc1O` [Compound 1], for which, in series [1], the viability at 48 h, 100 µM is more than 100%. The Kd on ECF‐module (EcfTAA′) was more than 200 µM.

As a reminder, the viability is a read-out of living cells in per cent, often relative to untreated cells. The term Kd denotes the constant that tells how readily two partners part at equilibrium. Read a high Kd as a looser complex. Broadly, the IC50 is the point on the concentration scale where inhibition reaches its midpoint.
